Patent publication US4221789A, “Lactam-N-acetic acids and their amides” (UCB, Societe Anonyme, priority 1978, dated 1980)
Structures can show the parent of a compound that is named as a salt.

tested on: mice; assay: toxicity in mice, intraperitoneal (Irwin's test); type: in vivo; settings: mice, intraperitoneal
Description: The compounds of formula I have a remarkably low toxicity.
*Dose which brings about the death of one animal out of three in Irwin's
test (S. IRWIN, Gordon Research Conference on Medicinal Chemistry, Colby
Junior College, New London, 1959).

SMILES	Dose which brings about the death of one animal out of three in Irwin's test [mg/kg]
NC(=O)C(CCO)N1CCCC1=O (stereo not drawn) [Example 4.1, alpha-(2-Hydroxyethyl)-2-oxo-1-pyrrolidineacetamide]	> 1116
CC1CCN(C(CCO)C(N)=O)C1=O (stereo not drawn) [Example 4.2, alpha-(2-Hydroxyethyl)-3-methyl-2-oxo-1-pyrrolidineacetamide]	> 1200
CC1CC(C)N(C(CCO)C(N)=O)C1=O (stereo not drawn) [Example 4.3, alpha-(2-Hydroxyethyl)-3,5-dimethyl-2-oxo-1-pyrrolidineacetamide]	> 1286
CCCCNC(=O)C(CCO)N1CCCC1=O (stereo not drawn) [Example 5.1, N-n-Butyl-alpha-(2-hydroxyethyl)-2-oxo-1-pyrrolidineacetamide]	> 1452
CCN(CC)C(=O)C(CCO)N1CCCC1=O (stereo not drawn) [Example 5.3, N,N-Diethyl-alpha-(2-hydroxyethyl)-2-oxo-1-pyrrolidineacetamide]	> 1452
CC(C)NC(=O)C(CCO)N1CCCC1=O (stereo not drawn) [Example 5.4, alpha-(2-Hydroxyethyl)-N-isopropyl-2-oxo-1-pyrrolidineacetamide]	> 1368
O=C(C(CCO)N1CCCC1=O)N1CCOCC1 (centres unmarked) [Example 6.1, 4-[4-Hydroxy-2-(2-oxo-1-pyrrolidinyl)butyryl]-morpholine]	> 1536
O=C(C(CCO)N1CCCC1=O)N1CCCCC1 (centres unmarked) [Example 6.2, 1-[4-Hydroxy-2-(2-oxo-1-pyrrolidinyl)butyryl]-piperidine]	> 1524
CCCNC(=O)C(CCO)N1CCCC1=O (stereo not drawn) [Example 6.3, alpha-(2-Hydroxyethyl)-N-propyl-2-oxo-1-pyrrolidineacetamide]	> 1368
O=C(NCc1ccccc1)C(CCO)N1CCCC1=O (stereo not drawn) [Example 6.6, N-Benzyl-alpha-(2-hydroxyethyl)-2-oxo-1-pyrrolidineacetamide]	822

same assay, conditions: mouse, in vivo, ip

SMILES	Dose which brings about the death of one animal out of three in Irwin's test [mg/kg]
O=C(O)C(O)N1CCCC1=O (stereo not drawn) [Example 2, alpha-Hydroxy-2-oxo-1-pyrrolidineacetic acid (dicyclohexylamine salt)]	> 102
O=C(O)C(CCO)N1CCCC1=O (stereo not drawn) [Example 3, alpha-(2-Hydroxyethyl)-2-oxo-1-pyrrolidineacetic acid]	> 1222
CCCCC1CCN(C(CCO)C(N)=O)C1=O (stereo not drawn) [Example 4.4, 3-n-Butyl-alpha-(2-hydroxyethyl)-2-oxo-1-pyrrolidineacetamide]	> 1452
NC(=O)C(CCO)N1CC(c2ccc(Cl)cc2)C(c2ccccc2)C1=O (stereo not drawn) [Example 4.5, 4-p-Chlorophenyl-alpha-(2-hydroxyethyl)-3-phenyl-2-oxo-1-pyrrolidineacetamide]	> 224
O=C(NC1CCCCC1)C(CCO)N1CCCC1=O (stereo not drawn) [Example 5.2, N-Cyclohexyl-alpha-(2-hydroxyethyl)-2-oxo-1-pyrrolidineacetamide]	> 1608
O=C(C(CCO)N1CCCC1=O)N1CCN(Cc2ccccc2)CC1 (centres unmarked) [Example 6.4, 1-Benzyl-4-[4-hydroxy-2-(2-oxo-1-pyrrolidinyl)butyryl]-piperazine]	> 345
O=C(NC1CCCC1)C(CCO)N1CCCC1=O (stereo not drawn) [Example 6.5, N-cyclopentyl-alpha-(2-hydroxyethyl)-2-oxo-1-pyrrolidineacetamide]	> 762

tested on: rat; assay: active avoidance test (memory retention; paw withdrawal threshold); type: in vivo; settings: Rattus norvegicus, sc, 24 h, read-out: Active dose
Description: (A) The action on mnemic processes is first shown by the ability of the compounds to improve a type of memory retention in the rat. The principle of the active avoidance test (see M. GREINDL and S. PREAT, Arch.Int. Pharmacodyn.Therap.223,(1976),(1),168-171) developed in our laboratories and used for this purpose, may be described as follows: the withdrawal reaction of a rat's paw when subjected to an increasing, quantified pressure is observed. The pressure at which the withdrawal reaction is produced, is called the reaction threshold. This threshold is expressed by the number of graduations of the scale of the apparatus used (Analgesymeter Ugo Basile, Milan) and thus corresponds to the minimum pressure which brings about withdrawal when applied to the animal's paw. It is read off directly on the scale of the apparatus used.
Inversely, animals treated with a substance having a positive effect on the mnemic processes (such as piracetam) show a significant degree of retention: the stimulus to which the rats react by a reflex of avoidance is statistically lower than that of the control animals. A minimum of 20 rats per test are used (10 treated rats and 10 control rats) and the active dose is defined as the minimum dose lowering the stimulus to below 11 graduations.

SMILES	minimal effective dose [µmol/kg]
NC(=O)CN1CCCC1=O [Compound A, 2-oxo-1-pyrrolidineacetamide, reference compound]	25
CCC(C(N)=O)N1CCCC1=O (stereo not drawn) [Compound B, alpha-ethyl-2-oxo-1-pyrrolidineacetamide, reference compound]	5
NC(=O)C(CCO)N1CCCC1=O (stereo not drawn) [Example 4.1, alpha-(2-Hydroxyethyl)-2-oxo-1-pyrrolidineacetamide]	2
CCN(CC)C(=O)C(CCO)N1CCCC1=O (stereo not drawn) [Example 5.3, N,N-Diethyl-alpha-(2-hydroxyethyl)-2-oxo-1-pyrrolidineacetamide]	0.2
O=C(C(CCO)N1CCCC1=O)N1CCOCC1 (centres unmarked) [Example 6.1, 4-[4-Hydroxy-2-(2-oxo-1-pyrrolidinyl)butyryl]-morpholine]	0.2
CCCNC(=O)C(CCO)N1CCCC1=O (stereo not drawn) [Example 6.3, alpha-(2-Hydroxyethyl)-N-propyl-2-oxo-1-pyrrolidineacetamide]	0.1
O=C(NCc1ccccc1)C(CCO)N1CCCC1=O (stereo not drawn) [Example 6.6, N-Benzyl-alpha-(2-hydroxyethyl)-2-oxo-1-pyrrolidineacetamide]	2

same assay, conditions: rat, subcutaneous, at the dose of 0.1 mmol/kg

SMILES	activity in the active avoidance test
O=C(O)CN1CCCC1=O [Compound C, 2-oxo-1-pyrrolidineacetic acid, reference compound]	inactive

same assay, conditions: sc; rat, subcutaneous; minimum dose lowering the stimulus to below 11 graduations, tested 24 hours later; read-out: Active dose

SMILES	minimal effective dose [µmol/kg]
O=C(O)C(O)N1CCCC1=O (stereo not drawn) [Example 2, alpha-Hydroxy-2-oxo-1-pyrrolidineacetic acid (dicyclohexylamine salt)]	5
O=C(C(CCO)N1CCCC1=O)N1CCN(Cc2ccccc2)CC1 (centres unmarked) [Example 6.4, 1-Benzyl-4-[4-hydroxy-2-(2-oxo-1-pyrrolidinyl)butyryl]-piperazine]	1
O=C(NC1CCCC1)C(CCO)N1CCCC1=O (stereo not drawn) [Example 6.5, N-cyclopentyl-alpha-(2-hydroxyethyl)-2-oxo-1-pyrrolidineacetamide]	0.2

tested on: papillary muscle isolated from the cat's heart; assay: "papillary muscle" test (inotropic activity); settings: Felis catus, read-out: increase of the strength of muscular contraction
Experimental: The method used is that of M. K. CATTELL and H. GOLD (J.Pharmacol.Exptl. Therap.62, (1938), 116-125). The experiment is carried out on a papillary muscle isolated from the cat's heart and dipped in a physiological salt solution to which the compound to be tested is added.

SMILES	activation at 10 µg/kg, 0.01 mg/kg [%]
NC(=O)C(CCO)N1CCCC1=O (stereo not drawn) [Example 4.1, alpha-(2-Hydroxyethyl)-2-oxo-1-pyrrolidineacetamide]	7

same assay, conditions: Felis catus; isolated cat papillary muscle, at the dose of 10 μg/kg; read-out: increase of the strength of muscular contraction

SMILES	activation at 10 µg/kg, 0.01 mg/kg [%]
Cn1c(=O)c2c(ncn2C)n(C)c1=O [caffeine, reference compound]	4

same assay, conditions: isolated cat papillary muscle; comparison with caffeine

SMILES	inotropic activity
NC(=O)C(CCO)N1CCCC1=O (stereo not drawn) [Example 4.1, alpha-(2-Hydroxyethyl)-2-oxo-1-pyrrolidineacetamide]	superior to that of caffeine

tested on: rat; assay: reduction of the spinal fixation time; type: in vivo; settings: Rattus norvegicus, ip, 35 min, read-out: Active dose
Description: (B) The action on the mnemic processes is also shown by the reduction of the spinal fixation time, a test which has been described in literature (see C. GIURGEA and F. MOURAVIEFF-LESUISSE, Arch.Int.Pharmacodyn.191,(1971,No. 2), 279) as an elementary model of memory and which provides pharmacological reactivity in good correlation with clinical physiopathology. In the rat, after unilateral lesion of the cerebellum, there is a postural asymmetry of the hind paws. This asymmetry may-persist, even after spinal section, if the animal has passed a sufficient period of time in this position. This time, which is called the spinal fixation time, is 45 minutes under the experimental conditions applied here.
On the other hand, if spinal section is performed before the expiry of this period of time, for example 35 minutes after the onset of asymmetry, the latter disappears.
Inversely, any product which allows the rats to retain the asymmetry (thus effecting spinal fixation), when the spinal section is performed after 35 minutes, is considered to be active.
By "number of animals" is to be understood the number of animals which responded positively to the test in relation to the number of animals tested at the dose indicated: […]

SMILES	minimal effective dose [µmol/kg]
NC(=O)C(CCO)N1CCCC1=O (stereo not drawn) [Example 4.1, alpha-(2-Hydroxyethyl)-2-oxo-1-pyrrolidineacetamide]	100
O=C(NCc1ccccc1)C(CCO)N1CCCC1=O (stereo not drawn) [Example 6.6, N-Benzyl-alpha-(2-hydroxyethyl)-2-oxo-1-pyrrolidineacetamide]	100

same assay, conditions: ip, 35 min; rat, intraperitoneal; spinal section after 35 minutes; read-out: Active dose

SMILES	minimal effective dose [µmol/kg]
NC(=O)CN1CCCC1=O [Compound A, 2-oxo-1-pyrrolidineacetamide, reference compound]	200
CCC(C(N)=O)N1CCCC1=O (stereo not drawn) [Compound B, alpha-ethyl-2-oxo-1-pyrrolidineacetamide, reference compound]	200
O=C(O)CN1CCCC1=O [Compound C, 2-oxo-1-pyrrolidineacetic acid, reference compound]	320
O=C(O)C(O)N1CCCC1=O (stereo not drawn) [Example 2, alpha-Hydroxy-2-oxo-1-pyrrolidineacetic acid (dicyclohexylamine salt)]	100
O=C(O)C(CCO)N1CCCC1=O (stereo not drawn) [Example 3, alpha-(2-Hydroxyethyl)-2-oxo-1-pyrrolidineacetic acid]	100

same assay, conditions: rat, intraperitoneal, 0.1 mmol/kg; spinal section after 35 minutes

SMILES	Number of animals which responded positively / number tested
O=C(O)C(O)N1CCCC1=O (stereo not drawn) [Example 2, alpha-Hydroxy-2-oxo-1-pyrrolidineacetic acid (dicyclohexylamine salt)]	4/7
O=C(O)C(CCO)N1CCCC1=O (stereo not drawn) [Example 3, alpha-(2-Hydroxyethyl)-2-oxo-1-pyrrolidineacetic acid]	4/7
NC(=O)C(CCO)N1CCCC1=O (stereo not drawn) [Example 4.1, alpha-(2-Hydroxyethyl)-2-oxo-1-pyrrolidineacetamide]	3/7
O=C(NCc1ccccc1)C(CCO)N1CCCC1=O (stereo not drawn) [Example 6.6, N-Benzyl-alpha-(2-hydroxyethyl)-2-oxo-1-pyrrolidineacetamide]	3/7

same assay, conditions: rat, intraperitoneal, 0.2 mmol/kg; spinal section after 35 minutes

SMILES	Number of animals which responded positively / number tested
NC(=O)CN1CCCC1=O [Compound A, 2-oxo-1-pyrrolidineacetamide, reference compound]	4/9
CCC(C(N)=O)N1CCCC1=O (stereo not drawn) [Compound B, alpha-ethyl-2-oxo-1-pyrrolidineacetamide, reference compound]	7/22

same assay, conditions: rat, intraperitoneal, 0.32 mmol/kg; spinal section after 35 minutes

SMILES	Number of animals which responded positively / number tested
O=C(O)CN1CCCC1=O [Compound C, 2-oxo-1-pyrrolidineacetic acid, reference compound]	2/4

tested on: not listed separately; assay: toxicity in the rat, intravenous or oral (LD 50); settings: in vivo, iv
Description: Furthermore, when administered intravenously (i.v.) or orally in the rat, the compounds also have a low toxicity, as indicated in the following Table: […]

SMILES	LD50 [mg/kg]
NC(=O)C(CCO)N1CCCC1=O (stereo not drawn) [Example 4.1, alpha-(2-Hydroxyethyl)-2-oxo-1-pyrrolidineacetamide]	> 4000

same assay, conditions: in vivo, po, orally

SMILES	LD50 [mg/kg]
NC(=O)C(CCO)N1CCCC1=O (stereo not drawn) [Example 4.1, alpha-(2-Hydroxyethyl)-2-oxo-1-pyrrolidineacetamide]	> 10000
